Test results published in patent US20120190666A1, “Heteroaryl Compounds as PIKK Inhibitors” (Amgen Inc., priority 2009, published 2012).

What was measured:
[1] = test system: phosphorylation of Akt at Serine 473 in U87 MG cells; test: pAkt AlphaScreen (U87 cell); assay type: cell-based; settings: Homo sapiens, U-87 MG, 2 h; pAkt at Serine 473, U87 MG cells, two hours with compound
Procedure: The pAkt AlphaScreen® assay (PerkinElmer, Waltham, Mass.) determines whether there is phosphorylation of Akt at Serine 473 by recruitment of a phosphospecific antibody. This assay was performed using U87 MG cells. The U87 growth media consists of MEM (Gibco, Carlsbad, Calif.) supplemented with 10% FBS (Gibco), 1× Non-Essential Amino Acids (Gibco,) and 1× Penicillin/Streptomycin/Glutamine (Gibco). The cells were maintained weekly using 0.05% Trypsin (Gibco) and replated in 150 mm TC— Treated Culture Dishes (Corning, Corning, N.Y.).
The first day of the assay, the adherent cells were trypsinized, media was added to the loose cells and cells were mixed to a homogenous mixture. 0.5 ml of the homogenous mixture was counted on the Beckman Coulter® Vi-Cell™ XR (Fullerton, Calif.). 50 frames of cells were counted and the number of viable cells was determined. The cells were then diluted to 0.25 million cells per ml, and centrifuged at 200 rcf for 5 minutes. The media was removed and the cells were reconstituted in fresh media for plating. The cells were plated at 20 μl per well on the PerkinElmer® FlexDrop PLUS in Low Volume 384 Well White Tissue Culture Plates (Corning) with a final cell density of 5K cells per well. The plates were incubated overnight at 37° Celsius, 5% CO2.
On the second day, the compound plates were prepared, the cells were treated with compound and the pAkt reaction mix was added to the cell lysate. 384 well compound plates were prepared containing 1 μl of compound per well starting at 5 mM and diluted 1:2 across the row, resulting in a 22 well serial dilution. 39 μl of growth media was added to the compound plate in rows 1-22 using the PerkinElmer® FlexDrop PLUS resulting in a DMSO concentration of 2.5%. The cell plates and diluted compound plates were put onto the VELOCITY11™ VPREP™ 384 ST where the compound plate was mixed and 5 μl of serially diluted compound or controls was added to the cell plate. The final concentration of the compounds was 25 μM serially diluted to 11.9 pM in 0.5% DMSO.
The cell plates were then incubated with compound for two hours at 37° C., 5% CO2. After two hours, the media in the cell plates was aspirated using the BioTek® ELx405HT plate washer (Winooski, Vt.) removing the majority of media and compound without disturbing the adherent U87 cells. The following assay reagents are components of the SureFire® Akt (Ser 473) Phosphorylation 50K Point Kit (TGR BioSciences, Adelaide, Austalia) and an IgG Detection Kit (PerkinElmer, Waltham, Mass.). 5 μl of 1× Lysis Buffer was added to each well using the PerkinElmer® FlexDrop PLUS. The plates were then incubated at room temperature on a shaker for ten minutes. The AlphaScreen® reaction was prepared under low light conditions (subdued or green light) including p-Aid (Ser 473) Reaction Buffer, Dilution Buffer, Activation Buffer, Acceptor Beads and Donor Beads at a ratio of 40:20:10:1:1 respectively. The AlphaScreen® reaction was added to the cell lysate at 6 μl per well using the PerkinElmer® FlexDrop PLUS. The plates were placed in a humid environment to reduce edge effects and incubated overnight at room temperature with restricted air flow in the dark.
On the final day of the experiment, the plates were read on the PerkinElmer® EnVision™ 2103 Multilable Reader using the standard AlphaScreen® readout. The POC is calculated and the data is analyzed to report the IC50 IP for pAkt at Serine 473.
Activity data for the compounds tested in the PI3K cell based Akt assay is provided in Table 1 under the column heading U87

mTOR = mTOR (Homo sapiens, UniProt P42345); test: mTOR LanthaScreen (TR-FRET, phosphorylation of 4EBP1); assay type: biochemical; settings: phosphorylation of GFP-4E-BP1, 10 μM ATP, 90 minutes
Procedure: The mTOR LanthaScreen is a TR-FRET assay measuring the phosphorylation of mTOR's substrate 4EBP1. 384 well compound plates were prepared containing 1 μl of compound per well starting at 5 mM and diluted 1:2 across the row, resulting in a 22 well serial dilution. 24 μl of assay buffer (Invitrogen, PV4794) with 2 mM DTT was added to the compound plate in rows 1-24 using the VELOCITY 11™ VPREP™ 384 ST resulting in a DMSO concentration of 4%. The compound plate was mixed and 2.5 μl of serially diluted compound or controls was added to the assay plate (Costar, 3658).
The assay was conducted on the PerkinElmer® FlexDrop PLUS. A 5 μl mix of 800 nM GFP-4E-BP1 (Invitrogen, PV4759) and 20 μM ATP (Amgen) was added to rows 1-24. 2.5 μl of 0.6 μg/ml of mTOR Enzyme (Amgen) was added to rows 1-23. 2.5 μl of assay buffer was added to row 24 for the low control. The final concentration of the compounds was 50 μM serially diluted to 23.84 pM in 1% DMSO. […] The final concentrations in the assay reagents were 400 nM GFP-4E-BP1, 10 μM of ATP and 0.15 μg/ml of mTOR enzyme. The compound, enzyme, and substrate were incubated for 90 minutes. At this point, 10 μl of stop solution was added (20 mM Tris, pH 7.5 (Invitrogen, 15567-027), 0.02% Sodium Azide (Teknova, S0208), 0.01% NP-40 (Roche, 11754599001), 20 mM EDTA (Invitrogen, 15575-038) and 4 nM of Tb-anti-p4E-BP1 (Invitrogen, PV4758)) for a final concentration of 2 nM of Tb-anti-p4E-BP1.
Sixty minutes later the plates were read on the PerkinElmer® EnVision™ 2103 Multilable Reader using the Excitation filter 340 nm and the Emission filters 520 nm and 495 nm.

Row | Compound | IC50 [1] [nM] | IC50 (mTOR) [nM]
1 | Cc1nc(N)cc(-c2c(Nc3ccn(C(=O)Nc4cc(F)cc(F)c4)n3)nc3cccnn23)n1 [Cpd 242, 3-((3-(6-amino-2-methyl-4-pyrimidinyl)imidazo[1,2-b]pyridazin-2-yl)amino)-N-(3,5-difluorophenyl)-1H-pyrazole-1-carboxamide] | 80 | 80
2 | COCCOc1cnnc(Nc2cc(-c3c(Nc4ccc(NC(C)=O)cc4)nc4cccnn34)nc(C)n2)c1 [Cpd 53, N-(4-((3-(6-((5-(2-methoxyethoxy)-3-pyridazinyl)amino)-2-methyl-4-pyrimidinyl)imidazo[1,2-b]pyridazin-2-yl)amino)phenyl)acetamide] | 10 | 1
3 | Cc1nc(N)cc(-c2c(Nc3ccn(C(=O)NCc4ccccc4)n3)nc3ccccn23)n1 [Cpd 222, 3-((3-(6-amino-2-methyl-4-pyrimidinyl)imidazo[1,2-a]pyridin-2-yl)amino)-N-benzyl-1H-pyrazole-1-carboxamide] | 1810 | 5880
4 | Cc1nc(N)nc(-c2c(Nc3cc[nH]n3)nc3ccc(-c4cccc(NC(=O)C5CC5)c4)cn23)n1 [Cpd 115, N-(3-(3-(4-amino-6-methyl-1,3,5-triazin-2-yl)-2-(1H-pyrazol-3-ylamino)imidazo[1,2-a]pyridin-6-yl)phenyl)cyclopropanecarboxamide] | 40 | 3
5 | CSc1cccc(-c2ccc3nc(Nc4cc[nH]n4)c(-c4nc(C)nc(N)n4)n3c2)c1 [Cpd 109, 3-(4-amino-6-methyl-1,3,5-triazin-2-yl)-6-(3-(methylsulfanyl)phenyl)-N-1H-pyrazol-3-ylimidazo[1,2-a]pyridin-2-amine] | 220 | 50
6 | Cc1nc(N)nc(-c2c(Nc3cc[nH]n3)nc3ccc(C4=CCN(C(=O)OC(C)(C)C)CC4)cn23)n1 [Cpd 97, tert-butyl 4-(3-(4-amino-6-methyl-1,3,5-triazin-2-yl)-2-(1H-pyrazol-3-ylamino)imidazo[1,2-a]pyridin-6-yl)-3,6-dihydro-1(2H)-pyridinecarboxylate] | 30 | 16
7 | Cc1nc(N)nc(-c2c(Nc3cc[nH]n3)nc3ccc(-c4ccc(F)cc4C)cn23)n1 [Cpd 107, 3-(4-amino-6-methyl-1,3,5-triazin-2-yl)-6-(4-fluoro-2-methylphenyl)-N-1H-pyrazol-3-ylimidazo[1,2-a]pyridin-2-amine] | 130 | 40
8 | CNC(=O)c1ccc(-c2ccc3nc(Nc4cc[nH]n4)c(-c4nc(C)nc(N)n4)n3c2)cc1F [Cpd 99, 4-(3-(4-amino-6-methyl-1,3,5-triazin-2-yl)-2-(1H-pyrazol-3-ylamino)imidazo[1,2-a]pyridin-6-yl)-2-fluoro-N-methylbenzamide] | 10 | 4
9 | Cc1nc(N)nc(-c2c(Nc3cc[nH]n3)nc3ccc(-c4ccc(S(C)(=O)=O)cc4)cn23)n1 [Cpd 344, 3-(4-amino-6-methyl-1,3,5-triazin-2-yl)-6-(4-(methylsulfonyl)phenyl)-N-1H-pyrazol-3-ylimidazo[1,2-a]pyridin-2-amine] | 20 | 80
10 | Cc1nc(N)nc(-c2c(Nc3cc[nH]n3)nc3cc(OCCN4CCCC4)ccn23)n1 [Cpd 188] | 320 | 360
11 | Cc1nc(N)cc(-c2c(Nc3ccn(-c4ccccn4)n3)nc3ccccn23)n1 [Cpd 216, 3-(6-amino-2-methyl-4-pyrimidinyl)-N-(1-(2-pyridinyl)-1H-pyrazol-3-yl)imidazo[1,2-a]pyridin-2-amine] | 450 | 860
12 | Cc1nc(N)cc(-n2nc(C(=O)NC3CC3)cc2Nc2cc[nH]n2)n1 [Cpd 16, 5-(1H-pyrazol-5-ylamino)-1-(6-amino-2-methylpyrimidin-4-yl)-N-cyclopropyl-1H-pyrazole-3-carboxamide] | 350 | 380
13 | Cc1nc(N)nc(-c2c(Nc3cc[nH]n3)nc3ccc(Nc4ccncc4)cn23)n1 [Cpd 166] | 450 | 25
14 | Cc1nc(N)nc(-c2c(Nc3ccn(C(=O)Nc4ccccc4)n3)nc3ccccn23)n1 [Cpd 204, 3-((3-(4-amino-6-methyl-1,3,5-triazin-2-yl)imidazo[1,2-a]pyridin-2-yl)amino)-N-phenyl-1H-pyrazole-1-carboxamide] | 90 | 90
15 | Cc1nc(NCC#N)cc(-c2c(Nc3cc[nH]n3)nc3cccnn23)n1 [Cpd 90] | 20 | 30
16 | CCNC(=O)Nc1ccc(Nc2nc3ccccn3c2-c2cc(N)nc(C)n2)cc1 [Cpd 40, 1-(4-((3-(6-amino-2-methyl-4-pyrimidinyl)imidazo[1,2-a]pyridin-2-yl)amino)phenyl)-3-ethylurea] | 60 | 10
17 | CC(=O)NCc1ccc(-c2ccc3nc(Nc4cc[nH]n4)c(-c4nc(C)nc(N)n4)n3c2)cc1 [Cpd 100, N-(4-(3-(4-amino-6-methyl-1,3,5-triazin-2-yl)-2-(1H-pyrazol-3-ylamino)imidazo[1,2-a]pyridin-6-yl)benzyl)acetamide] | 10 | 1
18 | Cc1nc(N)nc(-c2c(Nc3cc[nH]n3)nc3ccccn23)n1 [Cpd 1, 3-(4-amino-6-methyl-1,3,5-triazin-2-yl)-N-(1H-pyrazol-3-yl)imidazo[1,2-a]pyridin-2-amine] | 20 | 12
19 | CCOC(=O)c1cc(Nc2cc[nH]n2)n(-c2cc(N)nc(C)n2)n1 [Cpd 15, ethyl 5-(1H-pyrazol-3-ylamino)-1-(6-amino-2-methylpyrimidin-4-yl)-1H-pyrazole-3-carboxylate] | 110 | 144
20 | COCC(=O)Nc1cc(-c2c(Nc3ccn(C)n3)nc3cccnn23)nc(C)n1 [Cpd 123, 2-methoxy-N-(2-methyl-6-(2-((1-methyl-1H-pyrazol-3-yl)amino)imidazo[1,2-b]pyridazin-3-yl)-4-pyrimidinyl)acetamide] | 150 | 140
21 | Cc1nc(Nc2cccnn2)cc(-c2c(Nc3ccn(C)n3)nc3cccnn23)n1 [Cpd 34, N-(1-methyl-1H-pyrazol-3-yl)-3-(2-methyl-6-(3-pyridazinylamino)-4-pyrimidinyl)imidazo[1,2-b]pyridazin-2-amine] | 60 | 440
